The target of the assay is T1, human kinase Mps-1 (Homo sapiens, UniProt P33981).
T1 construct: N-terminally GST-tagged human full length recombinant Mps-1 kinase; GST (N); purchased Invitrogen, Karslruhe, Germany PV4071
T1 sequence (P33981 1-857): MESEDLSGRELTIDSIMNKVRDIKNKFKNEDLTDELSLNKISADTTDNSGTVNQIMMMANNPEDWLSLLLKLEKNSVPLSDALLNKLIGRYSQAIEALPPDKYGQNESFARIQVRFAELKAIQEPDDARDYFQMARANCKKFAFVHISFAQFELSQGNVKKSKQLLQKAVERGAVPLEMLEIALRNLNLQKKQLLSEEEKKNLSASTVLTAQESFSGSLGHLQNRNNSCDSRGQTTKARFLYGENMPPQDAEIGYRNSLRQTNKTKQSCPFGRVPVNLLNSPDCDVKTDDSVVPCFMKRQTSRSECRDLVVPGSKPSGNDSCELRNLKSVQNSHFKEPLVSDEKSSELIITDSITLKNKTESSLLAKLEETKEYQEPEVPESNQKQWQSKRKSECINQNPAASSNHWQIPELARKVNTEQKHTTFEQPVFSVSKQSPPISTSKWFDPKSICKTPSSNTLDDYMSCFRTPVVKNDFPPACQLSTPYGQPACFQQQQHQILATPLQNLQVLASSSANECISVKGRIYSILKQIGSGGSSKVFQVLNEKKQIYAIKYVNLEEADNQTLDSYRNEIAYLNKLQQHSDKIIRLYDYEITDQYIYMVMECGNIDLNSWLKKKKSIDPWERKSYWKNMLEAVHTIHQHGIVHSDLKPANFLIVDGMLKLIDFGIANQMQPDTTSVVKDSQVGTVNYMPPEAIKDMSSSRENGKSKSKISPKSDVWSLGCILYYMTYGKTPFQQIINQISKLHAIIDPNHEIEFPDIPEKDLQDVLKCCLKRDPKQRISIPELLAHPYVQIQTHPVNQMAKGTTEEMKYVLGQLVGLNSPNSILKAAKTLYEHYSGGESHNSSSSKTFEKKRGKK
The assay is described as follows: Mps-1 kinase assay (TR-FRET). The assay is classed as biochemical. Conditions: N-terminally GST-tagged human full length recombinant Mps-1; 10 μM ATP; 1 μM peptide substrate; 60 min at 22° C. A digest of the protocol: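 GST-tagged full-length recombinant Mps-1 at about 1 nM final, adjusted per lot for linear range, phosphorylated a biotinylated peptide. Product bound Eu-anti-phospho(Ser/Thr) antibody over 1 h at 22° C and was read by TR-FRET to streptavidin-XLent. Compounds scored for kinase inhibition.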

Broadly, the IC50 is the concentration that inhibits the measured activity by half. On to `Cc1cc(-c2cnc3c(NCCC(F)(F)F)cc(C(C)O)cn23)ccc1C(=O)NC1CC1` (racemic) [Example 143, N-cyclopropyl-4-{6-[(1RS)-1-hydroxyethyl]-8-[(3,3,3-trifluoropropyl)amino]imidazo[1,2-a]pyridin-3-yl}-2-methylbenzamide], for which the IC50 is 33.2 nM.
Take `CNC(=O)c1ccc(-c2cnc3c(NCCC(F)(F)F)cc(Oc4cccc(Cl)c4)cn23)cc1C` [Example 34, 4-{6-(3-chlorophenoxy)-8-[(3,3,3-trifluoropropyl)amino]imidazo[1,2-a]pyridin-3-yl}-N,2-dimethylbenzamide]: the IC50 was determined as 6.2 nM.
`CCNC(=O)c1ccc(-c2cnc3c(NCCC(F)(F)F)cc(-c4ccncc4)cn23)cc1C` [Example 89, N-ethyl-2-methyl-4-{6-(pyridin-4-yl)-8-[(3,3,3-trifluoropropyl)amino]imidazo[1,2-a]pyridin-3-yl}benzamide]: the IC50 was 6.9 nM.
As to `CCNC(=O)c1ccc(-c2cnc3c(NCC4CCOCC4)cc(Oc4ccc(OC)c(F)c4)cn23)cc1C` [Example 122, N-ethyl-4-{6-(3-fluoro-4-methoxyphenoxy)-8-[(tetrahydro-2H-pyran-4-ylmethyl)amino]imidazo[1,2-a]pyridin-3-yl}-2-methylbenzamide], the IC50 came to 1.9 nM.
Consider `Cc1cc(-c2cnc3c(NCCC(F)(F)F)cc(Oc4ccc(O)c(F)c4)cn23)ccc1C(=O)NC1CC1` [Example 129, N-cyclopropyl-4-{6-(3-fluoro-4-hydroxyphenoxy)-8-[(3,3,3-trifluoropropyl)amino]imidazo[1,2-a]pyridin-3-yl}-2-methylbenzamide], for which the IC50 was found to be 0.5 nM.
With `Cc1cc(-c2cnc3c(NCCC(F)(F)F)cc(Oc4ccc(OC(F)(F)F)cc4)cn23)ccc1C(=O)NC1(C)CC1` [Example 66, 2-Methyl-N-(1-methylcyclopropyl)-4-{6-[4-(trifluoromethoxy)phenoxy]-8-[(3,3,3-trifluoropropyl)amino]imidazo[1,2-a]pyridin-3-yl}benzamide], the concentration for half-maximal inhibition (IC50) was determined as 161 nM.
For the compound `CCNC(=O)c1ccc(-c2cnc3c(NCCC(F)(F)F)cc(-c4ccccc4OC)cn23)cc1C` [Example 82, N-ethyl-4-{6-(2-methoxyphenyl)-8-[(3,3,3-trifluoropropyl)amino]imidazo[1,2-a]pyridin-3-yl}-2-methylbenzamide], the concentration for half-maximal inhibition (IC50) was 21.3 nM.
As to `Cc1cc(-c2cnc3c(NCCC(F)(F)F)cc(Oc4cccc(F)c4)cn23)ccc1C(=O)NC1(CO)CC1` [Example 50, 4-{6-(3-Fluorophenoxy)-8-[(3,3,3-trifluoropropyl)amino]imidazo[1,2-a]pyridin-3-yl}-N-[1-(hydroxymethyl)cyclopropyl]-2-methylbenzamide], the IC50 came out at 7.3 nM.
For the compound `CCNC(=O)c1ccc(-c2cc(NCCC(F)(F)F)c3ncc(-c4ccc(C(=O)NC5CC5)c(C)c4)n3c2)cc1C` [Example 148, 4-{3-[4-(cyclopropylcarbamoyl)-3-methylphenyl]-8-[(3,3,3-trifluoropropyl)amino]imidazo[1,2-a]pyridin-6-yl}-N-ethyl-2-methylbenzamide], the IC50 worked out at 1 nM.
As to `COCCNc1cc(Oc2ccccc2C)cn2c(-c3ccc(C(=O)NC4CC4)c(C)c3)cnc12` [Example 170], the half-maximal inhibitory concentration (IC50) turned out to be 176 nM.
For the compound `C=Cc1cc(NCCC(F)(F)F)c2ncc(-c3ccc(C(=O)NC)c(C)c3)n2c1` [Example 93, N,2-dimethyl-4-{8-[(3,3,3-trifluoropropyl)amino]-6-vinylimidazo[1,2-a]pyridin-3-yl}benzamide], the IC50 is 68.6 nM.
Take `Cc1ccc(F)cc1Oc1cc(NCCC(F)(F)F)c2ncc(-c3ccc(C(=O)NC4(C5CC5)CC4)c(C)c3)n2c1` [Example 62, N-[1′,1′-bi(cyclopropyl)-1-yl]-4-{6-(5-fluoro-2-methylphenoxy)-8-[(3,3,3-trifluoropropyl)amino]imidazo[1,2-a]pyridin-3-yl}-2-methylbenzamide]: the concentration for half-maximal inhibition (IC50) was 49.3 nM.
In the case of `CNC(=O)c1ccc(-c2cnc3c(NCCC(F)(F)F)cc(Oc4ccccc4)cn23)cc1C` [Example 59, N,2-dimethyl-4-{6-phenoxy-8-[(3,3,3-trifluoropropyl)amino]imidazo[1,2-a]pyridin-3-yl}benzamide], the IC50 was 1.5 nM.

The values above are taken from patent US20140255392A1 (BAYER INTELLECTUAL PROPERTY GMBH, priority 2011, published 2014).
